# Measurements published in patent US20250129135A1, “Multi-Agonist and Use Thereof” (priority 2021, published 2025).
# Starred links: 1 amine or outer side, 2 acyl side, 3 side chain; linkers in the order of their positions; H or OH if unused. Non-standard residues stand in square brackets, D forms with d. Residues, ends and D or L forms follow the SMILES beside them. Groups on a side chain read outwards from the residue. *: point of attachment. C20 diacid = O=C(O)CCCCCCCCCCCCCCCCCCC(=O)*; αMePhe(2-F) = C[C@](N)(Cc1ccccc1F)C(=O)O; γGlu = O=C(O)[C@H](CCC(=O)[*:2])N[*:1]; αMeL = CC(C)C[C@](C)(N)C(=O)O; AEEA = NCCOCCOCC(=O)O; Aib = CC(C)(N)C(=O)O
# Legend:
# Human GIP R = molecular target: T1, Human GIP R (Homo sapiens, UniProt P48546); test: cAMP (HTRF) activity in CHO cells stably overexpressing GIP receptor; format: cell-based; settings: for Human GIP R Rel. A (Relative Activity): EC50 of human GIP / EC50 of compound; for EC50: stable transfected cell cAMP activity, at least 3 independent tests
# T1 construct: expressed in transfected cells; host or cells: CHO
# T1 sequence (P48546 22-466): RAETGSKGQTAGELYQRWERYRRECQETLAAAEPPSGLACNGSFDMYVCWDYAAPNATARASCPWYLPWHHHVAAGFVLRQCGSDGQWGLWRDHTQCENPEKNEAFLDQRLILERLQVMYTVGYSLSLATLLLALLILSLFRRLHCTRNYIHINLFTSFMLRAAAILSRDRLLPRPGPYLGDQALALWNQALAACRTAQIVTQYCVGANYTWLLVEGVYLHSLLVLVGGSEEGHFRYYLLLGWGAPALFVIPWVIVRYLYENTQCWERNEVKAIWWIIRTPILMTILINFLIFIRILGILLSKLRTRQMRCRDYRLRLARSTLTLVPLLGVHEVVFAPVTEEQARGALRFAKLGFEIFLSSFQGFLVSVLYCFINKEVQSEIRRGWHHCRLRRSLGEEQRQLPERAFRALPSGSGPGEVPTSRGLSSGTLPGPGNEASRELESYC
# How it was run: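 Cells in HBSS are exposed to compound for 60 min at room temperature, followed by 60 min with detection reagent. EC50 (nM) is taken from concentration-response curves.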
# 3T3-L1 adipocytes = settings: for Rel. A (Relative Activity) on 3T3-L1 adipocyte: relative to GIP
# How it was run: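 Compound-induced cAMP was measured in mature 3T3-L1 adipocytes after 60 min room-temperature exposure to a 10-concentration, 3-fold dilution series, followed by 60 min with kit detection reagent and curve fitting. Differentiation used IBMX/dexamethasone/insulin (5 days), insulin with 10 uM rosiglitazone (3 days), then 2–3 days in 10% FBS.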
# [1] = tested on: human primary liver cells; format: cell-based; settings: for Rel. A (Relative Activity) on human primary liver cells: relative to GCG
# How it was run: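 cAMP readout after 60 min with detection reagent, following 60 min room-temperature compound incubation. Cells were primary human liver cells thawed at 37° C and resuspended in HBSS.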
# [2] = Rat pharmacokinetics (PK) study; format: in vivo; settings: sc, male SD rats, subcutaneous 30 nmol/kg, plasma
# Method: 7˜9 weeks old male SD rats (220-250 g, 3 rats/group) were subjected to subcutaneous injection of 30 nmol/kg compound. After administration, blood was collected through the jugular vein at time points 0.25, 2, 4, 8, 12, 16, 24, 48, 96, 120, and 144 hours. The blood was processed to obtain plasma samples and analyzed using LC-MS/MS. The blood concentration time curve was analyzed using Phoenix WinNonlin version 6.3 software (non compartment model), and PK parameters and half-life were calculated.
Structure (SMILES),Human GIP R Rel. A (Relative Activity) (Human GIP R),EC50 (Human GIP R),EC50 (3T3-L1 adipocytes),Rel. A (Relative Activity) on 3T3-L1 adipocyte (3T3-L1 adipocytes),EC50 [1],Rel. A (Relative Activity) on human primary liver cells [1],AUC(0-t) [2],Cmax [2],Tmax [2],half-life [2]
CC[C@H](C)[C@H](NC(=O)[C@H](Cc1ccccc1)NC(=O)[C@H](C)NC(=O)C(C)(C)NC(=O)[C@H](CCC(N)=O)NC(=O)[C@H](C)NC(=O)[C@H](CCCCNC(=O)COCCOCCNC(=O)COCCOCCNC(=O)CC[C@H](NC(=O)CCCCCCCCCCCCCCCCCCC(=O)O)C(=O)O)NC(=O)[C@H](CCCCN)NC(=O)[C@H](CC(=O)O)NC(=O)[C@H](CC(C)C)NC(=O)[C@H](Cc1ccccc1)NC(=O)[C@@H](NC(=O)[C@H](CO)NC(=O)[C@H](Cc1ccc(O)cc1)NC(=O)[C@H](CC(=O)O)NC(=O)[C@H](CO)NC(=O)[C@@H](NC(=O)[C@](C)(Cc1ccccc1F)NC(=O)[C@@H](NC(=O)CNC(=O)[C@H](CCC(N)=O)NC(=O)C(C)(C)NC(=O)[C@@H](N)Cc1ccc(O)cc1)[C@@H](C)O)[C@@H](C)O)[C@@H](C)CC)C(=O)N[C@@H](CCC(=O)O)C(=O)N[C@@H](Cc1ccc(O)cc1)C(=O)N[C@@H](CC(C)C)C(=O)N[C@@H](CC(C)C)C(=O)N[C@@H](CCC(=O)O)C(=O)NC(C)(C)C(=O)N[C@@H](Cc1c[nH]cn1)C(=O)N1CCC[C@H]1C(=O)N[C@@H](CO)C(=O)N[C@@H](CO)C(=O)NCC(=O)N[C@@H](C)C(=O)N1CCC[C@H]1C(=O)N1CCC[C@H]1C(=O)N1CCC[C@H]1C(=O)N[C@@H](CO)C(N)=O [Compound 18],861.90%,0.021 nM,1.99 nM,191.34%,0.622 nM,625.56%,3.01 µM·h,62.8 nM,16 h,15.6 h
CC[C@H](C)[C@H](NC(=O)[C@H](Cc1ccccc1)NC(=O)[C@H](C)NC(=O)C(C)(C)NC(=O)[C@H](CCC(N)=O)NC(=O)[C@H](C)NC(=O)[C@H](CCCCNC(=O)COCCOCCNC(=O)COCCOCCNC(=O)CC[C@H](NC(=O)CCCCCCCCCCCCCCCCCCC(=O)O)C(=O)O)NC(=O)[C@H](CCCCN)NC(=O)[C@H](CC(=O)O)NC(=O)[C@H](CC(C)C)NC(=O)[C@](C)(CC(C)C)NC(=O)[C@@H](NC(=O)[C@H](CO)NC(=O)[C@H](Cc1ccc(O)cc1)NC(=O)[C@H](CC(=O)O)NC(=O)[C@H](CO)NC(=O)[C@@H](NC(=O)[C@](C)(Cc1ccccc1F)NC(=O)[C@@H](NC(=O)CNC(=O)[C@H](CCC(N)=O)NC(=O)C(C)(C)NC(=O)[C@@H](N)Cc1ccc(O)cc1)[C@@H](C)O)[C@@H](C)O)[C@@H](C)CC)C(=O)N[C@@H](CCC(=O)O)C(=O)N[C@@H](Cc1ccccc1)C(=O)N[C@@H](CC(C)C)C(=O)N[C@@H](CC(C)C)C(=O)N[C@@H](CCC(=O)O)C(=O)N[C@H](C(=O)NCC(=O)N1CCC[C@H]1C(=O)N[C@@H](CO)C(=O)N[C@@H](CO)C(=O)NC(C)(C)C(=O)N[C@@H](Cc1c[nH]cn1)C(=O)N1CCC[C@H]1C(=O)N1CCC[C@H]1C(=O)N1CCC[C@H]1C(=O)N[C@@H](CO)C(N)=O)[C@@H](C)O [Compound 38] (H-Y[Aib]QGT[αMePhe(2-F)]TSDYSI[αMeL]LDKK([AEEA-AEEA-γGlu-C20 diacid])AQ[Aib]AFIEFLLETGPSS[Aib]HPPPS-NH2; N-terminus assumed),1392.31%,0.013 nM,3.24 nM,117.42%,0.899 nM,432.81%,3.1 µM·h,78.1 nM,16 h,15.7 h
